Literature values in patent publication US8586092B2 (Xi'an Libang Pharmaceutical Technology Co., Ltd., priority 2009, dated 2013).
Values belong to the compound of their own block, whether it stands above or below them.

How the values were obtained:
mouse = conditions: in vivo, sc
rat = conditions: orally administered to rat

aqueous solubility: around 10 ng/ml
SMILES: C[C@]12CC[C@@H]3c4ccc(O)cc4C[C@@H](CCCCCCCCC[S+]([O-])CCCC(F)(F)C(F)(F)F)[C@H]3[C@@H]1CC[C@@H]2O (stereo partly drawn) [Fulvestrant, 7-alpha-[9-(4,4,5,5,5-pentafluoropentylsulphinyl)nonyl]estra-1,3,5-(10)-triene-3,17-beta-diol]

SMILES: CCO [ethanol]
LD50 (mouse): 8285 mg/kg

SMILES: O=C(OCc1ccccc1)c1ccccc1 [Benzyl benzoate]
LD50 (rat): 500 mg/kg
